From article PMC8844826 (iScience, 2022) come the findings set out here.

Peptide text beside a SMILES is read from it.

Assay [1] has as its target T1, full length PSD-95 (Homo sapiens, UniProt P78352).
T1 construct: FL-PSD-95 (32M3C-PSD-95 FL 1-724); made in house; host or cells: E. coli BL21-DE3-pLysS
The assay is described as follows: competitive fluorescence polarization (FP) binding to full length PSD-95, tracer AB-143. Particulars: Ki,app.

Another assay concerns PSD-95. Kind of assay: confocal microscopy of LLPS droplets of fluorescently labeled PSD-95. The assay is classed as biochemical, human. Particulars: peptide 36 μM, Alexa 633-PSD-95 30 nM labeled/3 μM unlabeled, validated by SDS-PAGE sedimentation.
Assay [2] deals with T1, full length PSD-95. The assay is described as follows: SDS-PAGE sedimentation assay with PSD-95. It counts as biochemical. Particulars: SDS-PAGE sedimentation and quantification; n = 3.
Procedure: (§1) Proteins were all mixed in the desired concentration in PBS-TCEP and equilibrated for 10 min before centrifugation at 20,000 g for 15 min at 25°C using a temperature-controlled table top centrifuge. Following centrifugation, the supernatant was collected and the pellet was re-suspended in an equal amount of PBS-TCEP, usually 50 μL. To ensure proper suspension of LLPS samples were vortexed before addition of SDS buffer boiling at 95°C for 5 min. Supernatant and pellet fractions were run on any kD Mini-PROTEAN TGX Precast Protein Gels (10 or 15 wells, BioRad 4569036 or 4569033). Gels were imaged using a Li-COR Odyssey gel scanner and band intensities were analyzed using ImageJ. Significance was evaluated using one-way ANOVA with Dunnett post-test, one-way ANOVA with Tukey post-test or a two-way ANOVA with Dunnett post-test.
The test system of assay [3] is ePSD (PSD-95, Homer3, Shank3, GKAP, SynGAP). Kind of assay: SDS-PAGE sedimentation assay with ePSD. The assay is classed as biochemical. Particulars: n = 3; for promotion of LLPS of ePSD: SDS-PAGE sedimentation and quantification, ePSD incubated with indicated peptides; for LLPS induction in the PSD-95 containing ePSD: peptide 10 μM and 100 μM.
Procedure: as §1
The subject of the next assay is ePSD. The assay is described as follows: confocal microscopy of ePSD LLPS droplets. The assay is classed as biochemical.
The test system of another assay is 15N-PDZ1-2 of PSD-95. Kind of assay: 1H-15N-HSQC NMR chemical shift perturbation. Particulars: 512 μM StgA222-R236/128 μM 15N-PDZ1-2; 50 mM Tris pH 8, 200 mM NaCl, 1 mM TCEP, 25°C. The assay is classed as binding. On the procedure:
All NMR spectra were recorded on 600 MHz or 750 MHz Bruker Avance III HD spectrometers equipped with QCI or TCI cryo-probes at 25°C in 50 mM Tris pH 8, 200 mM NaCl, 1 mM TCEP, 10% D2O and 250 μM DSS. Spectra were processed with NMRPipe ([Delaglio et al., 1995]) or qMDD ([Kazimierczuk and Orekhov, 2011]) if non-uniform sampling was used for the acquisition and analyzed using CCPNMR analysis ([Skinner et al., 2016]). Amide nitrogen and proton chemical shift assignments were kindly shared by Prof. […] Combined chemical shift perturbations were calculated between the unbound and the bound states using.

Setting [4] is: SDS-PAGE sedimentation, ePSD 3 μM.

T1 sequence (P78352 whole entry): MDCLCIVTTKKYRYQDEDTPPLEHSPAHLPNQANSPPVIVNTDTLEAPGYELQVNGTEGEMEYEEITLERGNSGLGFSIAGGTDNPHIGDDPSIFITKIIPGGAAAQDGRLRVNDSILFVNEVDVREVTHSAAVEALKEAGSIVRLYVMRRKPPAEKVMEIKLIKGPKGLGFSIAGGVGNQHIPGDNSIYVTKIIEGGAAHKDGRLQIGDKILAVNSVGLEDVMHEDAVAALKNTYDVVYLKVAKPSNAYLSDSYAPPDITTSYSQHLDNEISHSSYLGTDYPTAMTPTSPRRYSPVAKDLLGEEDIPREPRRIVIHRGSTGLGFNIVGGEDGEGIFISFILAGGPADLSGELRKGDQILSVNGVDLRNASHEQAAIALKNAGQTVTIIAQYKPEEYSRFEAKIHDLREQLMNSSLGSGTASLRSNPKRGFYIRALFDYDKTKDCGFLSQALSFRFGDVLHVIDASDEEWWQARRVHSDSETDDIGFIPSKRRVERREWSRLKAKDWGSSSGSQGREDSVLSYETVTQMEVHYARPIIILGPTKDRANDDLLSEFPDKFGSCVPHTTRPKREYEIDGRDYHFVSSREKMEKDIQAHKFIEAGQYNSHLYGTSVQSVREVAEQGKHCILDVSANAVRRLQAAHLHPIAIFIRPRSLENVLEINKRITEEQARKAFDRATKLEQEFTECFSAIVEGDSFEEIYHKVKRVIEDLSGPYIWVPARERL

As to `CC[C@H](C)[C@H](NC(=O)[C@H](CO)NC(=O)[C@H](CO)NC(=O)[C@H](CC(C)C)NC(=O)[C@H](CCCCN)NC(=O)[C@H](CCCN=C(N)N)NC(=O)[C@H](CCCN=C(N)N)NC(=O)[C@H](CCCN=C(N)N)NC(=O)[C@H](CCC(N)=O)NC(=O)[C@H](CCCN=C(N)N)NC(=O)[C@H](CCCN=C(N)N)NC(=O)[C@H](CCCCN)NC(=O)[C@H](CCCCN)NC(=O)[C@H](CCCN=C(N)N)NC(=O)CNC(=O)[C@@H](N)Cc1ccc(O)cc1)C(=O)N[C@@H](CCC(=O)O)C(=O)N[C@@H](CO)C(=O)N[C@@H](CC(=O)O)C(=O)N[C@H](C(=O)O)C(C)C` [NA-1] (H-YGRKKRRQRRRKLSSIESDV-OH), the Ki at full length PSD-95 [1] (pH 6.4, competitive FP, pH 6.4) is 7.2 µM; at full length PSD-95 [1] (pH 7.4, competitive FP, pH 7.4), 4.5 µM; on full length PSD-95 [1] (pH 8.4, competitive FP, pH 8.4), 2.6 µM; at full length PSD-95 [1] (pH 9.4, competitive FP, pH 9.4), 4.1 µM.

Consider `CC[C@H](C)[C@H](NC(=O)[C@H](CO)NC(=O)[C@H](CO)NC(=O)[C@H](CC(C)C)NC(=O)[C@H](CCCCN)NC(=O)[C@H](CCCNC(=N)N)NC(=O)[C@H](CCCNC(=N)N)NC(=O)[C@H](CCCNC(=N)N)NC(=O)[C@H](CCC(N)=O)NC(=O)[C@H](CCCNC(=N)N)NC(=O)[C@H](CCCNC(=N)N)NC(=O)[C@H](CCCCN)NC(=O)[C@H](CCCCN)NC(=O)[C@H](CCCNC(=N)N)NC(=O)CNC(=O)[C@@H](N)Cc1ccc(O)cc1)C(=O)N[C@@H](CCC(=O)O)C(=O)N[C@@H](CO)C(=O)N[C@@H](CC(=O)O)C(=O)N[C@H](C(=O)O)C(C)C` [NA-1] (H-YGRKKRRQRRRKLSSIESDV-OH; N-terminus and C-terminus assumed), for which the “pH below which LLPS of PSD-95 is induced” value in the assay with PSD-95 was “below 7.4 pH”. In addition, the “LLPS induction for PSD-95 alone by known inhibitors” value on full length PSD-95 [2] is listed as “able”. In addition, in assay [3], the “promotion of LLPS of ePSD” value is recorded as “able to promote LLPS”. The “LLPS induction in the PSD-95 containing ePSD” value in assay [3] (setting [4]) is “could induce LLPS”. Besides, in the assay on ePSD, the “LLPS once complexed with the ePSD” value is reported as “induces LLPS”.

For YGRKKRRQRRR [TAT11], in the assay with 15N-PDZ1-2 of PSD-95, the “chemical shift perturbations in 1H-15N-HSQC” value is given as “did not result in any chemical shift perturbations”. Moreover, the “promotion of LLPS of ePSD” value in assay [3] is on record as “able to promote LLPS”. Besides, the “LLPS induction of the ePSD” value in assay [3] (SDS-PAGE sedimentation, peptide 10 μM, ePSD 3 μM) was “induced LLPS”.

Turning to “YGRKKRRQRRR-NPEG4-di-IETAA [AVLX-144-AA]”, in assay [3] (SDS-PAGE sedimentation, ePSD 3 μM, compared with AVLX-144), the “effect on ePSD LLPS formation” value is recorded as “largely compromised the ability to drive LLPS”.

Regarding YGRKKRRQRRR-NPEG4-di-IETDV [AVLX-144], in the assay with PSD-95, the “pH below which LLPS of PSD-95 is induced” value was “below 6.4 pH”. Further, the “LLPS induction in the PSD-95 containing ePSD” value in assay [3] (setting [4]) is “induced LLPS to a minor extent”.
